Results: ChEMBL document CHEMBL1201862, “PubChem BioAssay data set” (2004)
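The compound was tested at five concentrations on cells cultured in 96-well plates, with a 48-hour exposure period. At the GI50, growth is halved.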 Activity calls are given as the source filed them. Rule as the data show it: active = GI50 up to about 1.1 µM and inactive = higher.

Experiments:
Assay in all cases: NCI anticancer screen, dose series, 48 h
786-0 = tested on: 786-0
A498 = tested on: A498
A549 = tested on: A549
ACHN = tested on: ACHN
BT-549 = tested on: BT-549
CAKI-1 = tested on: CAKI-1
CCRF-CEM = tested on: CCRF-CEM
COLO 205 = tested on: COLO 205
DU-145 = tested on: DU-145
EKVX = tested on: EKVX
HCT-116 = tested on: HCT-116
HCT-15 = tested on: HCT-15
HL-60 = tested on: HL-60
HOP-62 = tested on: HOP-62
HOP-92 = tested on: HOP-92
HT-29 = tested on: HT-29
Hs-578T = tested on: Hs-578T
IGROV-1 = tested on: IGROV-1
K562 = tested on: K562
KM12 = tested on: KM12
LOX IMVI = tested on: LOX IMVI
M14 = tested on: M14
MCF7 = tested on: MCF7
MDA-MB-231 = tested on: MDA-MB-231
MDA-MB-435 = tested on: MDA-MB-435
MDA-N = tested on: MDA-N
MOLT-4 = tested on: MOLT-4
Malme-3M = tested on: Malme-3M
NCI-H226 = tested on: NCI-H226
NCI-H23 = tested on: NCI-H23
NCI-H460 = tested on: NCI-H460
NCI-H522 = tested on: NCI-H522
OVCAR-3 = tested on: OVCAR-3
OVCAR-4 = tested on: OVCAR-4
OVCAR-5 = tested on: OVCAR-5
OVCAR-8 = tested on: OVCAR-8
PC-3 = tested on: PC-3
RPMI-8226 = tested on: RPMI-8226
RXF 393 = tested on: RXF 393
SF-268 = tested on: SF-268
SF-295 = tested on: SF-295
SF-539 = tested on: SF-539
SK-MEL-28 = tested on: SK-MEL-28
SK-MEL-2 = tested on: SK-MEL-2
SK-MEL-5 = tested on: SK-MEL-5
SK-OV-3 = tested on: SK-OV-3
SN12C = tested on: SN12C
SNB-19 = tested on: SNB-19
SR = tested on: SR
SW-620 = tested on: SW-620
TK-10 = tested on: TK-10
U-251 = tested on: U-251
UACC-257 = tested on: UACC-257
SNB-75 = tested on: SNB-75
T47D = tested on: T47D
UACC-62 = tested on: UACC-62
UO-31 = tested on: UO-31

`CC(=O)NNC(=O)C1CCCCN1` (stereo not drawn) was tested, and the GI50 (786-0) was > 100 µM (inactive), the GI50 (A498) was > 100 µM (inactive) and the GI50 (A549) was > 100 µM (inactive). For the same compound, the GI50 (ACHN) was > 100 µM (inactive), the GI50 (BT-549) was > 100 µM (inactive) and the GI50 (CAKI-1) was > 100 µM (inactive). For the same compound, the GI50 (CCRF-CEM) was > 100 µM (inactive), the GI50 (COLO 205) was > 100 µM (inactive) and the GI50 (DU-145) was > 100 µM (inactive). The GI50 (EKVX) was > 100 µM (inactive), the GI50 (HCT-116) was > 100 µM (inactive) and the GI50 (HCT-15) was over 100 µM. The GI50 (HL-60) was > 100 µM (inactive), the GI50 (HOP-62) was > 100 µM (inactive) and the GI50 (HOP-92) was > 100 µM (inactive). The GI50 (HT-29) was > 100 µM (inactive), the GI50 (Hs-578T) was > 100 µM (inactive) and the GI50 (IGROV-1) was > 100 µM (inactive). For the same compound, the GI50 (K562) was > 100 µM (inactive), the GI50 (KM12) was > 100 µM (inactive) and the GI50 (LOX IMVI) was > 100 µM (inactive). For the same compound, the GI50 (M14) was > 100 µM (inactive), the GI50 (MCF7) was > 100 µM (inactive) and the GI50 (MDA-MB-231) was > 100 µM (inactive). The GI50 (MDA-MB-435) was > 100 µM (inactive), the GI50 (MDA-N) was > 100 µM (inactive) and the GI50 (MOLT-4) was > 100 µM (inactive). The GI50 (Malme-3M) was > 100 µM (inactive), the GI50 (NCI-H226) was > 100 µM (inactive) and the GI50 (NCI-H23) was > 100 µM (inactive). For the same compound, the GI50 (NCI-H460) was > 100 µM (inactive), the GI50 (NCI-H522) was > 100 µM (inactive) and the GI50 (OVCAR-3) was > 100 µM (inactive). The GI50 (OVCAR-4) was > 100 µM (inactive), the GI50 (OVCAR-5) was > 100 µM (inactive) and the GI50 (OVCAR-8) was > 100 µM (inactive). For the same compound, the GI50 (PC-3) was > 100 µM (inactive), the GI50 (RPMI-8226) was > 100 µM (inactive) and the GI50 (RXF 393) was > 100 µM (inactive). For the same compound, the GI50 (SF-268) was > 100 µM (inactive), the GI50 (SF-295) was > 100 µM (inactive) and the GI50 (SF-539) was > 100 µM (inactive). For the same compound, the GI50 (SK-MEL-28) was > 100 µM (inactive), the GI50 (SK-MEL-2) was > 100 µM (inactive) and the GI50 (SK-MEL-5) was > 100 µM (inactive). The GI50 (SK-OV-3) was > 100 µM (inactive), the GI50 (SN12C) was > 100 µM (inactive) and the GI50 (SNB-19) was > 100 µM (inactive). For the same compound, the GI50 (SR) was > 100 µM (inactive), the GI50 (SW-620) was > 100 µM (inactive) and the GI50 (TK-10) was > 100 µM (inactive). The GI50 (U-251) was > 100 µM (inactive) and the GI50 (UACC-257) was > 100 µM (inactive).
`CNc1nncc2[nH]cnc12` was tested, and the GI50 (786-0) was > 100 µM (inactive), the GI50 (A498) was > 100 µM (inactive) and the GI50 (ACHN) was > 100 µM (inactive). The GI50 (BT-549) was > 100 µM (inactive), the GI50 (CAKI-1) was > 100 µM (inactive) and the GI50 (CCRF-CEM) was > 100 µM (inactive). The GI50 (COLO 205) was > 100 µM (inactive), the GI50 (DU-145) was > 100 µM (inactive) and the GI50 (EKVX) was > 100 µM (inactive). For the same compound, the GI50 (HCT-116) was > 100 µM (inactive), the GI50 (HCT-15) was over 100 µM and the GI50 (HL-60) was 32.4 µM (inactive). For the same compound, the GI50 (HOP-92) was > 100 µM (inactive), the GI50 (HT-29) was > 100 µM (inactive) and the GI50 (Hs-578T) was > 100 µM (inactive). The GI50 (IGROV-1) was > 100 µM (inactive), the GI50 (KM12) was > 100 µM (inactive) and the GI50 (LOX IMVI) was > 100 µM (inactive). The GI50 (MCF7) was > 100 µM (inactive), the GI50 (MDA-MB-231) was > 100 µM (inactive) and the GI50 (MDA-MB-435) was > 100 µM (inactive). The GI50 (MDA-N) was > 100 µM (inactive), the GI50 (MOLT-4) was > 100 µM (inactive) and the GI50 (OVCAR-8) was > 100 µM (inactive). The GI50 (RPMI-8226) was > 100 µM (inactive), the GI50 (RXF 393) was > 100 µM (inactive) and the GI50 (SF-268) was > 100 µM (inactive). The GI50 (SK-MEL-28) was > 100 µM (inactive), the GI50 (SK-MEL-5) was > 100 µM (inactive) and the GI50 (SK-OV-3) was > 100 µM (inactive). For the same compound, the GI50 (SN12C) was > 100 µM (inactive), the GI50 (SNB-19) was > 100 µM (inactive) and the GI50 (SNB-75) was > 100 µM (inactive). The GI50 (SW-620) was > 100 µM (inactive), the GI50 (T47D) was > 100 µM (inactive) and the GI50 (TK-10) was > 100 µM (inactive). For the same compound, the GI50 (U-251) was > 100 µM (inactive), the GI50 (UACC-257) was > 100 µM (inactive) and the GI50 (UACC-62) was > 100 µM (inactive). The GI50 (UO-31) was > 100 µM (inactive).
